Reference: patent US20230129866A1 (PureTech LYT 100, Inc., priority 2020, published 2023)
Like-named read-outs stand apart in the source and are kept apart here.

Columns and labels:
[1] = cited from earlier work
[2] = cited from earlier work; remark: listed apart in the source
[3] = 200 mg SD-559 (pirfenidone) BID, Huang et al.; in ng/mL; cited from earlier work
[4] = humans, cited from earlier work
LPS-induced plasma TNFα = test: LPS-induced plasma TNF-α after oral pretreatment in rats; type: in vivo, Sprague-Dawley rats; conditions: Mean ± St. Dev., n = 6-8; for Plasma TNFα concentrations 4 hours after LPS: vehicle 693 ± 553; for Plasma TNFα concentrations 1.5 hours after LPS: vehicle 75389 ± 29107
Description: (§1) LPS was diluted with sterile saline to […] and sonicated at 40° C. for 20 minutes to generate a stock solution and stored at 4° C. Each day of use, the stock solution was further diluted to 0.03 mg/mL in sterile saline.
(§2) Male Sprague-Dawley rats with indwelling femoral and jugular venous catheters (n=6-8 per dose and test article group) were used in this study. […] Sixty minutes after the oral dose, 0.03 mg/kg of LPS in 1 mL/kg saline was infused into the jugular vein.
(§3) Blood samples were collected from the femoral vein into heparin-coated syringes 15 minutes prior to the LPS infusion (45 minutes after oral doses of test article), 90 minutes after the LPS infusion and 4 hours after the LPS infusion. Plasma was prepared by centrifugation of the blood samples at 14,000 rpm for 10 minutes. Plasma samples were stored at −70 ° C. until analysis.

LPS-induced plasma IL-6 = LPS-induced plasma IL-6 after oral pretreatment in rats; type: in vivo, Sprague-Dawley rats; conditions: Mean ± St. Dev, n = 6-8; for Plasma IL-6 concentrations 4 hours after LPS: vehicle 13989 ± 6125; for Plasma IL-6 concentrations 1.5 hours after LPS: vehicle 40423 ± 8653
Description: as §1, §2, §3

[5] = rat, in vivo
Description: The original male TK animals received 1000 mg/kg of SD-559 on Day 1 and continued on study. The protocol was amended to add additional TK male animals in Group 6 for Day 1 collection of TK samples at 875 mg/kg.
Blood samples were collected from 3 subsets of 3 animals/sex on Day 1 and Day 28 at pre-dose, 0.25, 0.5, 1, 2, 4. 8 and 24 hours (hr) post-dose for groups 2 to 6 and from one subset of 3 animals/sex at 0.25 hr post-dose for the vehicle group (group 1). […] Non-compartmental analysis (NCA) of plasma concentration data was conducted using Phoenix® WinNonlin®, version 8.0.

[6] = human, in vivo, po
Description: Following screening, eligible healthy volunteer subjects were admitted to a single clinical study site and were randomized to 1 of 2 treatment sequences. […] In each period, a standardized breakfast was provided to subjects prior to administration of study drug (to compare the PK profiles in the clinically relevant fed state) and plasma samples were collected over a 48-hour period after dosing for evaluation of PK. Dosing between the 2 periods was separated by a minimum of 7 days. Subjects completed the study upon completion of the 48-hour post-dose assessments following dosing period 2.
All capsules were identical in size, shape, and external color.

[7] = Pirfenidone @801 mg, Rubino et al.
[8] = Lancaster et al. 2017, frequencies as high as
[9] = multinational post-marketing study
[10] = single-center retrospective observational study, 351 patients
[11] = 30 mg/kg oral pretreatment 1 hour prior to LPS injection
[12] = 100 mg/kg oral pretreatment 1 hour prior to LPS injection
[13] = 300 mg/kg oral pretreatment 1 hour prior to LPS injection

Cc1ccc(=O)n(-c2ccccc2)c1 [Pirfenidone, 5-methyl-1-phenyl-1H-pyridin-2-one]
AUC, % Change Fed vs Fasted [1, 7]: −15% | Cmax, % Change Fed vs Fasted [1, 7]: −49% | Tmax, % Change Fed vs Fasted [1, 7]: +500% | Increase in Tmax, fed vs fasted ([1]; pirfenidone 801 mg dose, prior study): 500% | Fatigue frequency (TEAE rate) [2, 8]: ≤ 52.4 per 100PEY | Nausea frequency (TEAE rate) [2, 8]: ≤ 62.1 per 100 PEY | Patients with permanent treatment discontinuation due to adverse drug reactions ([2]; PASSPORT long-term observational safety study, Cottin et al. 2018): 28.7% | Treatment discontinuation rate with predominant gastrointestinal side-effects ([2]; b281): > 25% | Patients who had an adverse event ([2]; compassionate use program, Raghu & Thickett 2013): 44% | Patients who experienced an adverse event [2, 9]: Approximately 73% | Patients with gastrointestinal symptoms [2, 9]: 38% | Patients with an ADR leading to discontinuation ([2]; patients aged <65 years): 7.5% | Patients with an ADR leading to dose modification/interruption ([2]; patients aged <65 years): 18.0% | Patients with an ADR leading to discontinuation ([2]; patients aged ≥80 years): 20.9% | Patients with an ADR leading to dose modification/interruption ([2]; patients aged ≥80 years): 32.7% | Elevations of AST and ALT levels to >3x ULN ([2]; phase III trials): 3.2% | Loss of appetite [2, 10]: 17% | Nausea/vomiting [2, 10]: 15% | Share of reported AEs that were GI-related [2, 10]: 75% | observed Cmax [3]: 2305 | Share of recovered drug material excreted as unchanged pirfenidone ([4]; urine): less than 1% | Oral dose excreted in urine [4]: approximately 80% | Plasma TNFα concentrations 4 hours after LPS (LPS-induced plasma TNFα; [11]): 346 ± 83 pg/mL | Plasma TNFα concentrations 1.5 hours after LPS (LPS-induced plasma TNFα; [11]): 46138 ± 20266 pg/mL | Plasma TNFα concentrations 4 hours after LPS (LPS-induced plasma TNFα; [12]): 207 ± 92 pg/mL | Plasma TNFα concentrations 1.5 hours after LPS (LPS-induced plasma TNFα; [12]): 22230 ± 16540 pg/mL | Plasma TNFα concentrations 4 hours after LPS (LPS-induced plasma TNFα; [13]): 131 ± 32 pg/mL | Plasma TNFα concentrations 1.5 hours after LPS (LPS-induced plasma TNFα; [13]): 11495 ± 10753 pg/mL | Plasma IL-6 concentrations 4 hours after LPS (LPS-induced plasma IL-6; [11]): 8886 ± 5321 pg/mL | Plasma IL-6 concentrations 1.5 hours after LPS (LPS-induced plasma IL-6; [11]): 25173 ± 10651 pg/mL | Plasma IL-6 concentrations 4 hours after LPS (LPS-induced plasma IL-6; [12]): 4603 ± 2524 pg/mL | Plasma IL-6 concentrations 1.5 hours after LPS (LPS-induced plasma IL-6; [12]): 26226 ± 8434 pg/mL | Plasma IL-6 concentrations 4 hours after LPS (LPS-induced plasma IL-6; [13]): 2361 ± 1185 pg/mL | Plasma IL-6 concentrations 1.5 hours after LPS (LPS-induced plasma IL-6; [13]): 18692 ± 9996 pg/mL | Accumulation after multiple dosing for 28 Days [5]: No accumulation | Tolerability of single doses [6]: well tolerated
